Results on six compounds are retold here after PubChem BioAssay AID1259407 (Chemical Carcinogenesis Research Information System (CCRIS), 2018).

The structures appear in SMILES notation. Active and inactive are the calls of the source. No rule for the calls is given here.

The test system of the data set is CCRIS mutagenicity, Ames/micronucleus/aberration tests. Nature of the data set: CCRIS mutagenicity studies.
The mark [1] stands for this setting: Test System: AMES SALMONELLA TYPHIMURIUM, Strain/Indicator: TA98, Metabolic Activation: NONE, Method: PREINCUBATION
The mark [2] stands for this setting: Test System: AMES SALMONELLA TYPHIMURIUM, Strain/Indicator: TA100, Metabolic Activation: NONE, Method: PREINCUBATION
Setting [3] is: Test System: AMES SALMONELLA TYPHIMURIUM, Strain/Indicator: TA100, Metabolic Activation: NONE, Method: STANDARD PLATE.
Setting [4] is: Test System: AMES SALMONELLA TYPHIMURIUM, Strain/Indicator: TA98, Metabolic Activation: NONE, Method: STANDARD PLATE.

For `CCCCCCCCCCCCCCCCCC(N)=O`, the mutagenic call under setting [1] was “inactive; negative”; the mutagenic call (Test System: AMES SALMONELLA TYPHIMURIUM, Strain/Indicator: TA98, Metabolic Activation: RAT LIVER S-9, PHENOBARBITAL AND BETA-NAPHTHOFLAVONE, Method: PREINCUBATION) is “inactive; negative”; the mutagenic call under setting [2] was “inactive; negative”; the mutagenic call (Test System: AMES SALMONELLA TYPHIMURIUM, Strain/Indicator: TA100, Metabolic Activation: RAT LIVER S-9, PHENOBARBITAL AND BETA-NAPHTHOFLAVONE, Method: PREINCUBATION) is “inactive; negative”; the mutagenic call (Test System: AMES SALMONELLA TYPHIMURIUM, Strain/Indicator: TA1535, Metabolic Activation: NONE, Method: PREINCUBATION) is “inactive; negative”; the mutagenic call (Test System: AMES SALMONELLA TYPHIMURIUM, Strain/Indicator: TA1535, Metabolic Activation: RAT LIVER S-9, PHENOBARBITAL AND BETA-NAPHTHOFLAVONE, Method: PREINCUBATION) was “inactive; negative”. Further, the mutagenic call is “inactive; negative” (Test System: AMES SALMONELLA TYPHIMURIUM, Strain/Indicator: TA1537, Metabolic Activation: NONE, Method: PREINCUBATION); “inactive; negative” (Test System: AMES SALMONELLA TYPHIMURIUM, Strain/Indicator: TA1537, Metabolic Activation: RAT LIVER S-9, PHENOBARBITAL AND BETA-NAPHTHOFLAVONE, Method: PREINCUBATION); “inactive; negative” (Test System: E.COLI, Strain/Indicator: WP2UVRA/PKM101, Metabolic Activation: NONE, Method: PREINCUBATION); “inactive; negative” (Test System: E.COLI, Strain/Indicator: WP2UVRA/PKM101, Metabolic Activation: RAT LIVER S-9, PHENOBARBITAL AND BETA-NAPHTHOFLAVONE, Method: PREINCUBATION).
Take `Nc1nc(NO)c2ncn([C@@H]3O[C@H](CO)[C@@H](O)[C@H]3O)c2n1`: the mutagenic call by setting is: (Test System: AMES SALMONELLA TYPHIMURIUM, Strain/Indicator: TA100(TN5-1,8-DNP1011), Metabolic Activation: NONE, Method: STANDARD PLATE) “active; positive”; (Test System: AMES SALMONELLA TYPHIMURIUM, Strain/Indicator: TA100(TN5-1,8-DNP1012), Metabolic Activation: NONE, Method: STANDARD PLATE) “active; positive”; under setting [3], “active; positive”.
As to `Nc1ccc(Oc2cccc(Oc3ccc(N)cc3)c2)cc1`, the mutagenic call is “inactive; negative” under setting [1]; “active; positive” (Test System: AMES SALMONELLA TYPHIMURIUM, Strain/Indicator: TA98, Metabolic Activation: RAT, LIVER, S-9, PCB, Method: PREINCUBATION); “inactive; negative” under setting [2]; “active; positive” (Test System: AMES SALMONELLA TYPHIMURIUM, Strain/Indicator: TA100, Metabolic Activation: RAT, LIVER, S-9, PCB, Method: PREINCUBATION).
Take `O=Nc1ccc2ccccc2c1`: the mutagenic call reads like this: under setting [4], “active; positive”; (Test System: AMES SALMONELLA TYPHIMURIUM, Strain/Indicator: TA98, Metabolic Activation: S-9, Method: STANDARD PLATE) “active; positive”; under setting [3], “active; positive”; (Test System: AMES SALMONELLA TYPHIMURIUM, Strain/Indicator: TA100, Metabolic Activation: S-9, Method: STANDARD PLATE) “active; positive”; (Test System: AMES SALMONELLA TYPHIMURIUM, Strain/Indicator: TA1538, Metabolic Activation: NONE, Method: STANDARD PLATE) “active; positive”.
As for `CSCCl`, the mutagenic call was “inactive; negative” (Test System: AMES SALMONELLA TYPHIMURIUM, Strain/Indicator: TA98, Metabolic Activation: NONE, Method: SPOT TEST); “inactive; negative” (Test System: AMES SALMONELLA TYPHIMURIUM, Strain/Indicator: TA98, Metabolic Activation: RAT, LIVER, S-9, AROCLOR 1254, Method: SPOT TEST); “active; positive” (Test System: AMES SALMONELLA TYPHIMURIUM, Strain/Indicator: TA100, Metabolic Activation: NONE, Method: SPOT TEST); “active; positive” (Test System: AMES SALMONELLA TYPHIMURIUM, Strain/Indicator: TA100, Metabolic Activation: RAT, LIVER, S-9, AROCLOR 1254, Method: SPOT TEST); “active; positive” (Test System: AMES SALMONELLA TYPHIMURIUM, Strain/Indicator: TA102, Metabolic Activation: RAT, LIVER, S-9, AROCLOR 1254, Method: SPOT TEST).
Consider `Cc1ccc(C)c(C)c1`, for which the mutagenic call is “inactive; negative” (Test System: AMES SALMONELLA TYPHIMURIUM, Strain/Indicator: TA97A, Metabolic Activation: NONE, Method: STANDARD PLATE); “inactive; negative” (Test System: AMES SALMONELLA TYPHIMURIUM, Strain/Indicator: TA97A, Metabolic Activation: RAT, LIVER, S-9, AROCLOR 1254, Method: STANDARD PLATE); “inactive; negative” under setting [4]; “inactive; negative” (Test System: AMES SALMONELLA TYPHIMURIUM, Strain/Indicator: TA98, Metabolic Activation: RAT, LIVER, S-9, AROCLOR 1254, Method: STANDARD PLATE); “inactive; negative” under setting [3]; “inactive; negative” (Test System: AMES SALMONELLA TYPHIMURIUM, Strain/Indicator: TA100, Metabolic Activation: RAT, LIVER, S-9, AROCLOR 1254, Method: STANDARD PLATE). Also, the mutagenic call runs as follows: (Test System: AMES SALMONELLA TYPHIMURIUM, Strain/Indicator: TA102, Metabolic Activation: NONE, Method: STANDARD PLATE) “inactive; negative”; (Test System: AMES SALMONELLA TYPHIMURIUM, Strain/Indicator: TA102, Metabolic Activation: RAT, LIVER, S-9, AROCLOR 1254, Method: STANDARD PLATE) “inactive; negative”.
